Assay results as given in patent US20210071180A1, “MICRORNA 584-5P COMPOSITIONS AND METHODS FOR TREATING CANCER” (BOARD OF REGENTS, THE UNIVERSY OF TEXAS SYSTEM, priority 2018, published 2021).

Legend:
Assay type in all cases: cell-based
PGC-1α = assay: qRT-PCR of PGC-1α expression; details: miR-584-5p-treated MB cells
Description: One such gene is peroxisome proliferator-activated receptor gamma coactivator 1-α, which codes for PGC-1α protein, which HDAC1 inhibits in brown adipocytes (Li, F. et al. J Biol Chem 291, 4523-4536, (2016)). The results disclosed herein reveal that PGC-1α expression is increased in miR-584-5p-treated MB cells (FIG. 10). […] The data in FIG. 10 represent Log 2 ratio tumor/cerebellum control. Data mined from GSE28245. ***, p<0.001; ** , p<0.01; * , p<0.05.
VCR disrupts the integrity of the mitotic spindle and destabilizes microtubules (George, P., Journey, L. J. & Goldstein, M. N. J Natl Cancer Inst 35, 355-375 (1965)). Therefore, it was tested whether miR-584-5p and its target genes might affect microtubule dynamics. First, expression of tubulins was deteremined because VCR resistance has been associated with altered expression of tubulin isotypes (Sirotnak, F. M., Danenberg, K. D., Chen, J., Fritz, F. & Danenberg, P. V. Biochem Biophys Res Commun 269, 21-24, (2000)). […] In FIG. 12A, the p-values were calculated using standard Student t-tests. Error bars represent mean±SEM. ****, p<0.0001. […] The p-values were calculated using standard Student t-tests. Error bars represent mean±SEM. […] In FIG. 11F, the p-values were calculated using standard Student t-tests. […] In FIG. 11H, The p-values were calculated using standard Student t-tests. […] Quantitative real-time PCR. […]

[1] = tested on: activated CHK1, ATR, BRCA1; assay: Western blot of checkpoint proteins; details: miR-584-5p mimic-transfected MB cells
Description: FIG. 13C-D show representative immunofluorescence images showing 53BP1 foci in D556Med cells transfected with miR-NC or miR-584-5p mimic (C) or scramble-siRNA or eIF4E3/HDAC1-siRNAs (D) and treated with or without 10 Gy of IR.
Immunofluorescence and Western blot analysis Immunofluorescence analyses was carried out on cells fixed in 4% paraformaldehyde (Imam, J. S. et al. PLoS One 7, e52397, (2012)). Western blot analysis was performed on cell extracts from miR-584-5p mimic- or target gene siRNA-transfected MB cell lines in accordance with previously reported studies (Rajamanickam, S. et al. Clin Cancer Res 22, 3524-3536, (2016); and Imam, J. S. et al. PLoS One 7, e52397, (2012). Antibodies against horseradish peroxidase-conjugated β-actin (1:50,000; #A5316), β-tubulin (#T8328), and glyceraldehyde-3-phosphate dehydrogenase (GAPDH) (1:25,000; #G9295) were purchased from Sigma-Aldrich. Antibody against eIF4E3 (1:1000; #17282-1-AP) was purchased from Proteintech. Antibodies against HDAC1 (1:1000; #5356), pCHK1 (1:1000; #2348), and CHK1 (1:1000; #2360) were purchased from Cell Signaling Technology (Danvers, Mass., USA). Antibodies against MYC (1:1000; #Sc-40), BRCA1 (1:1000; #6954), and ATR (1:1000; #sc-515173) were purchased from Santa Cruz. Antibody against 53BP1 (1:300; #A300-272AT) was purchased from Bethyl Laboratories. […]

MB cells = assay: Annexin V-FITC FACS analysis of apoptosis; details: Annexin V staining
Description: To gain more insight into the tumor-suppressing and VCR-sensitizing activities of miR-584-5p, it was determined how the miR-584-5p mimic affected cell cycle progression of MB cells. […] Bar graphs show DNA histograms quantified using the FlowJo software. In FIG. 9A, the p-values were determined by two-way ANOVA followed by Tukey's multiple-comparisons test. Error bars represent mean±SEM. […] In FIG. 9B, the p-values were calculated using standard Student t-tests. Error bars represent mean±SEM. […] Next, it was determined whether miR-584-5p's effect on cell cycle progression may be mediated via its target genes eIF4E3/HDAC1. […] Bar graphs show dot plots quantified using the FlowJo software. Next, it was tested whether miR-584-5p-induced cell cycle arrest led to apoptosis of MB cells. […] In FIG. 8C, the bar graphs reflect DNA histograms quantified using the FlowJo software and in FIG. 8D and FIG. 9C, the bar graphs show dot plots quantified using the FlowJo software. The p-values for panels 8A-D and FIG. 9C were determined by two-way ANOVA followed by Tukey's multiple-comparisons test. Error bars represent mean±SEM. ****, p<0.0001; ***, p<0.001; **, p<0.01; *, p<0.05.
Flow cytometry analysis of cell cycle and apoptosis. […] Cells were analyzed using either FACScantoII or LSRII cytometers, and data were quantified using FlowJo 10.2 software.

miR-584-5p: microRNA mimic; nucleotide sequence UUAUGGUUUGCCUGGGACUGAG (SEQ ID NO: 1); purchased from Thermofisher (chemistry not given here)
PGC-1α expression (PGC-1α): increased
levels of activated CHK1 and ATR, as well as BRCA1 [1]: significantly lower levels
apoptosis of MB cells (MB cells): increased apoptosis
